Assay results as given in US7494669B2, “Delivery of physiological agents with in-situ gels comprising anionic polysaccharides” (priority 2001, dated 2009).
Read-outs that look alike come from different tables or passages of the source.

What was measured:
[1] = Gelation of HMW Aloe pectin solution on mixing with divalent cation salts; assay type: physicochemical; parameters: key: + indicates whole gel formation; ± partial gel formation; − no gel formation and solution remains clear and homogenous
Procedure: A 0.6% (w/v) HMW Aloe pectin solution in water was mixed with calcium chloride dihydrate solutions at various concentrations, at an 1:1 ratio (1 ml to 1 ml) to achieve a final polymer concentration of 0.3% (w/v) and a final calcium chloride dihydrate concentration from 0.0019-0.5% (w/v). The mixtures were immediately vortexed together, then the tubes were kept at room temperature and observed over time.

[2] = Gel frontal migration assay with serum; assay type: physicochemical; details: 3 mg/ml pectin with 0.0039% or 0.0078% calcium chloride on normal calf serum
Excerpt: Body fluids such as blood, lacrimal fluid, lung fluid and nasal secretions contain calcium ions ([…] in blood, for example). Since Aloe pectin forms calcium gel, the role of calcium in the in-situ gelation of Aloe pectin was examined using an in vitro gelling assay with animal serum that simulates in-situ gel formation. This in vitro assay is described as a gel frontal migration assay. Animal serum was placed at the bottom of a glass tube and the Aloe pectin solution was layered on top of the serum (the pectin solution may also be placed at the bottom of the tube dependent on the density of the test solution in relation to the pectin solution). Tissue culture grade normal calf serum was used. […]
Gel formation was immediate at the contact line (interface of the solutions) and the gel phase or gel front gradually extended upward in the pectin solution over time. […] The thickness of the gel formed at the interface can be measured over time (such measurements are referred to as “gel length” hereinbelow).
The gel frontal migration assay described above was used. […] After 18 hrs at room temperature, the length of gels formed (i.e. gel thickness) was measured. […]
The gel frontal migration assay described above was used. […] The length of gels formed was measured 18 hrs later. […]

[3] = system: cells surrounding the gel; assay: Local delivery of bFGF by Aloe pectin in-situ gel; assay type: in vivo, mice
Excerpt: For growth factors to exert local effect on tissues surrounding the administration site, they need to be delivered in a matrix to allow them to be released in a slow or sustained manner. A delivery in saline or buffer alone is not effective in this regard. In this example, a growth factor (bFGF) was used. bFGF (basic fibroblast growth factor or FGF-2) is a growth factor known to stimulate fibroblast proliferation and angiogenesis or blood vessel formation. It was mixed with Aloe pectin (0.5%, w/v) in physiological saline at a concentration of 1-10 μg/ml and then injected subcutaneously into the lower left or right side of abdominal region of mice. One side received the control (pectin alone), and the other side received the bFGF-containing preparation. The in-situ gels from two mice were harvested along with skin at days 5-10 and subjected to fixation in formalin, sectioning, and H&E staining. Two identical areas, at either end of the gel, vertically between the gel surface and the skin muscle layer and horizontally 510 μm inward from the lateral end of the gel were selected, and the cells in these two selected areas from each gel were numerated using the NIH image software.

[4] = 0.3% (w/v) HMW Aloe pectin, salt 0 % w/v final
[5] = 0.3% (w/v) HMW Aloe pectin, salt 0.0019 % w/v final
[6] = 0.3% (w/v) HMW Aloe pectin, salt 0.0039 % w/v final
[7] = 0.3% (w/v) HMW Aloe pectin, salt 0.0156 % w/v final
[8] = 0.3% (w/v) HMW Aloe pectin, salt 0.0313 % w/v final
[9] = 0.3% (w/v) HMW Aloe pectin, salt 0.0625 % w/v final
[10] = 0.3% (w/v) HMW Aloe pectin, salt 0.125 % w/v final
[11] = 0.3% (w/v) HMW Aloe pectin, salt 0.25 % w/v final
[12] = 0.3% (w/v) HMW Aloe pectin, salt 0.5 % w/v final

Row | Molecule | Gel formation on mixing with HMW Aloe pectin [1] | Gel formation on mixing with HMW Aloe pectin [1, 4] | Gel formation on mixing with HMW Aloe pectin [1, 5] | Gel formation on mixing with HMW Aloe pectin [1, 6] | Gel formation on mixing with HMW Aloe pectin [1, 7] | Gel formation on mixing with HMW Aloe pectin [1, 8] | Gel formation on mixing with HMW Aloe pectin [1, 9] | Gel formation on mixing with HMW Aloe pectin [1, 10] | Gel formation on mixing with HMW Aloe pectin [1, 11] | Gel formation on mixing with HMW Aloe pectin [1, 12] | Gel formation versus control without added calcium chloride [2] | Gel formation on mixing with HMW Aloe pectin ([1]; 0.3% (w/v) HMW Aloe pectin, salt 0.0078 % w/v final) | Blood vessel formation surrounding the gel ([3]; bFGF 10 μg/ml) | Cell number in bFGF-treated relative to the control (pectin alone) ([3]; bFGF 1-10 μg/ml in 0.5% Aloe pectin, subcutaneous, days 5-10)
1 | O.O.[Ca+2].[Cl-].[Cl-] [CaCl2•2H2O, calcium chloride dihydrate] | − | − | − | − | ± | + | + | + | + | + | gel formation increased |  |  | 
2 | [Cl-].[Cl-].[Zn+2] [ZnCl2, zinc chloride] |  | − | − | − | ± | + | + | + | + | + |  | − |  | 
3 | bFGF: basic fibroblast growth factor (FGF-2), delivered in 0.5% Aloe pectin in physiological saline |  |  |  |  |  |  |  |  |  |  |  |  | increase in blood vessel formation | more than 2 times
